Key:
Cbl-b [1] = molecular target: T1, Cbl-b (Homo sapiens, UniProt Q13191); test: Cbl-b inhibition assay (Cbl-b activity assay, FRET, Biological Example 1; 100 mM NaCl, 60 nM Src kinase); format: biochemical; settings: upper bound stated in text lists; read-out: IC50 values in the Cbl-b inhibition assay of Biological Example 1
Procedure, shortened: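 N-terminally biotinylated Avi-tagged Cbl-b was mixed with Src kinase, UbcH5B covalently conjugated to Bodipy-fluorescein ubiquitin, and streptavidin-terbium. Src phosphorylation lets Cbl-b bind UbcH5B-Ub, giving terbium-fluorescein FRET; inhibition is read as loss of FRET signal.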

Cbl-b [2] = molecular target: T1, Cbl-b; test: Cbl-b activity assay (Cbl-b inhibition assay), TR-FRET of Cbl-b interaction with UbcH5B-Ub; format: biochemical; settings: assay buffer with 100 mM NaCl, 60 nM Src kinase; read-out: Cbl-b activity IC50
Procedure, shortened: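 UbcH5B (C85K) conjugated to N-terminally Bodipy-Fluorescein-labeled ubiquitin served as the fluorescent partner. After compound preincubation, Src kinase (60 nM) with 1 mM ATP and 5 mM MgCl2 (final) was added for 1.5 h, followed by a further 1 h incubation. Some values were obtained with 50 mM NaCl and 30 nM Src.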

Cbl-b (residues 36-427) = Cbl-b (residues 36-427) (Homo sapiens, UniProt Q13191); test: Cbl-b binding assay (SPR, Biacore T200); settings: 20° C., 1:1 binding model
Procedure, shortened: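 Steps: capture protein on NeutrAvidin surface; inject compound dilutions (8 or 10 points from 100 or 50 μM) 50 s; allow 90-180 s dissociation; regenerate 20 s with 0.3 M NaCl. Runs at 20° C in HEPES pH 7.5/100 mM NaCl/2% DMSO; 1:1 fitting.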

Sequence of Cbl-b (residues 36-427) (Q13191 36-427): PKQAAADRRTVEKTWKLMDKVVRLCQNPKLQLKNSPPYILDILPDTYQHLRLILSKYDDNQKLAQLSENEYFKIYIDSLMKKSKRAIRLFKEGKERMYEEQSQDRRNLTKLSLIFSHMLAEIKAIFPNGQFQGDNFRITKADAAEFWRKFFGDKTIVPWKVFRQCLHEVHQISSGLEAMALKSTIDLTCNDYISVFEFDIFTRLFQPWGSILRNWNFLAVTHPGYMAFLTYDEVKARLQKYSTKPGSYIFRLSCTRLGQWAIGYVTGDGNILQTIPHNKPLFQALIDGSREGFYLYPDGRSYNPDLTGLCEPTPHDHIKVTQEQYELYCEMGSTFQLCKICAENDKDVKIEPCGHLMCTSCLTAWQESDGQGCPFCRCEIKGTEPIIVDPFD
T1 sequence (Q13191 36-427): as above

Row | Structure (SMILES) | IC50 (Cbl-b [1]) | IC50 (Cbl-b [2]) | Kd (Cbl-b (residues 36-427))
1 | C[C@H](Cc1nncn1C)c1cccc(NC(=O)c2cc(C(=O)N3CCC(O)C3(C)C)ccn2)c1 (stereo partly drawn) [Compound 231, 4-(3-hydroxy-2,2-dimethylpyrrolidine-1-carbonyl)-N-(3-((R)-1-(4-methyl-4H-1,2,4-triazol-3-yl)propan-2-yl)phenyl)picolinamide] | ≤ 10 µM | 1 to 3 µM | 0.1 to 0.3 µM
2 | C[C@H](Cc1nncn1C)c1cccc(NC(=O)c2cc(C(=O)N3CCC4(COC4)C3)ccn2)c1 [Compound 233, N-[3-[(2R)-1-(4-methyl-4H-1,2,4-triazol-3-yl)propan-2-yl]phenyl]-4-[2-oxa-6-azaspiro[3.4]octane-6-carbonyl]pyridine-2-carboxamide] | ≤ 10 µM | 3 to 10 µM | 3 to 10 µM
3 | C[C@H](Cc1nncn1C)c1cccc(NC(=O)c2cc(C(=O)N3C[C@@H]4[C@@H](O)[C@@H]4C3)ccn2)c1 [Compound 234, 4-[(1R,5S,6R)-6-hydroxy-3-azabicyclo[3.1.0]hexane-3-carbonyl]-N-[3-[(2R)-1-(4-methyl-4H-1,2,4-triazol-3-yl)propan-2-yl]phenyl]pyridine-2-carboxamide] | ≤ 10 µM | 1 to 3 µM | 1 to 3 µM
4 | C[C@H](Cc1nncn1C)c1cccc(NC(=O)c2cc(C(=O)N3C[C@H](O)[C@@H](F)C3)ccn2)c1 [Compound 235, 4-[(3S,4S)-3-fluoro-4-hydroxypyrrolidine-1-carbonyl]-N-[3-[(2R)-1-(4-methyl-4H-1,2,4-triazol-3-yl)propan-2-yl]phenyl]pyridine-2-carboxamide] | ≤ 10 µM | 1 to 3 µM | 3 to 10 µM
5 | C[C@H](Cc1nncn1C)c1cccc(NC(=O)c2cc(C(=O)N3CC[C@H](C#N)C3)ccn2)c1 [Compound 236, 4-[(3S)-3-cyanopyrrolidine-1-carbonyl]-N-[3-[(2R)-1-(4-methyl-4H-1,2,4-triazol-3-yl)propan-2-yl]phenyl]pyridine-2-carboxamide] | ≤ 10 µM | 1 to 3 µM | 1 to 3 µM
6 | C[C@H](Cc1nncn1C)c1cccc(NC(=O)c2cc(C(=O)N3CC[C@@H](C#N)C3)ccn2)c1 [Compound 238, 4-((R)-3-cyanopyrrolidine-1-carbonyl)-N-(3-((R)-1-(4-methyl-4H-1,2,4-triazol-3-yl)propan-2-yl)phenyl)picolinamide] | ≤ 10 µM | 1 to 3 µM | 1 to 3 µM
7 | C[C@H](Cc1nncn1C)c1cccc(NC(=O)c2cc(C(=O)N3CC(O)C(C)(C)C3)ccn2)c1 (stereo partly drawn) [Compound 239, 4-(4-hydroxy-3,3-dimethylpyrrolidine-1-carbonyl)-N-(3-((R)-1-(4-methyl-4H-1,2,4-triazol-3-yl)propan-2-yl)phenyl)picolinamide] | ≤ 10 µM | 1 to 3 µM | 0.1 to 0.3 µM
8 | CC(O)C1CN(C(=O)c2ccnc(C(=O)Nc3cccc([C@H](C)Cc4nncn4C)c3)c2)C1 (stereo partly drawn) [Compound 241, 4-(3-(1-hydroxyethyl)azetidine-1-carbonyl)-N-(3-((R)-1-(4-methyl-4H-1,2,4-triazol-3-yl)propan-2-yl)phenyl)picolinamide] | ≤ 10 µM | 3 to 10 µM | < 0.1 µM
9 | C[C@H](Cc1nncn1C)c1cccc(NC(=O)c2cc(C(=O)N3CCNCC3)ccn2)c1 [Compound 242, (R)-N-(3-(1-(4-methyl-4H-1,2,4-triazol-3-yl)propan-2-yl)phenyl)-4-(piperazine-1-carbonyl)picolinamide] | ≤ 10 µM | 3 to 10 µM | 3 to 10 µM
10 | CNCCNC(=O)c1ccnc(C(=O)Nc2cccc([C@H](C)Cc3nncn3C)c2)c1 [Compound 244, (R)-N2-(3-(1-(4-methyl-4H-1,2,4-triazol-3-yl)propan-2-yl)phenyl)-N4-(2-(methylamino)ethyl)pyridine-2,4-dicarboxamide] | ≤ 10 µM | 1 to 3 µM | 1 to 3 µM
11 | C[C@H](Cc1nncn1C)c1cccc(NC(=O)c2cc(C(=O)N3CCC(CO)C3)ccn2)c1 (stereo partly drawn) [Compound 245, 4-(3-(hydroxymethyl)pyrrolidine-1-carbonyl)-N-(3-((R)-1-(4-methyl-4H-1,2,4-triazol-3-yl)propan-2-yl)phenyl)picolinamide] | ≤ 10 µM | 1 to 3 µM | 3 to 10 µM
12 | C[C@H](Cc1nncn1C)c1cccc(NC(=O)c2cc(C(=O)N3C[C@@H](F)[C@@H](O)C3)ccn2)c1 [Compound 246, cis-4-(3-fluoro-4-hydroxypyrrolidine-1-carbonyl)-N-(3-((R)-1-(4-methyl-4H-1,2,4-triazol-3-yl)propan-2-yl)phenyl)picolinamide] | ≤ 10 µM | 1 to 3 µM | 1 to 3 µM
13 | C[C@H](Cc1nncn1C)c1cccc(NC(=O)c2cc(C(=O)N[C@@H]3CCNC3)ccn2)c1 [Compound 247, N2-[3-[(2R)-1-(4-methyl-4H-1,2,4-triazol-3-yl)propan-2-yl]phenyl]-N4-[(3R)-pyrrolidin-3-yl]pyridine-2,4-dicarboxamide] | ≤ 10 µM | 3 to 10 µM | 3 to 10 µM
14 | C[C@H](Cc1nncn1C)c1cccc(NC(=O)c2cc(C(=O)N[C@H]3CCNC3)ccn2)c1 [Compound 248, N2-(3-((R)-1-(4-methyl-4H-1,2,4-triazol-3-yl)propan-2-yl)phenyl)-N4-((s)-pyrrolidin-3-yl)pyridine-2,4-dicarboxamide] | ≤ 10 µM | 3 to 10 µM | 3 to 10 µM
15 | CN[C@@H]1CCN(C(=O)c2ccnc(C(=O)Nc3cccc([C@H](C)Cc4nncn4C)c3)c2)C1 [Compound 249, N-(3-((R)-1-(4-methyl-4H-1,2,4-triazol-3-yl)propan-2-yl)phenyl)-4-((R)-3-(methylamino)pyrrolidine-1-carbonyl)picolinamide] | ≤ 10 µM | 1 to 3 µM | 1 to 3 µM
16 | CN[C@H]1CCN(C(=O)c2ccnc(C(=O)Nc3cccc([C@H](C)Cc4nncn4C)c3)c2)C1 [Compound 250, N-[3-[(2R)-1-(4-methyl-4H-1,2,4-triazol-3-yl)propan-2-yl]phenyl]-4-[(3S)-3-(methylamino)pyrrolidine-1-carbonyl]pyridine-2-carboxamide] | ≤ 10 µM | 1 to 3 µM | 1 to 3 µM
17 | CC(Cc1nccn1C)c1cccc(NC(=O)c2cc(C(=O)N3CC[C@H](O)C3)ccn2)c1 (stereo partly drawn) [Compound 252, 4-((S)-3-hydroxypyrrolidine-1-carbonyl)-N-(3-(1-(1-methyl-s1H-imidazol-2-yl)propan-2-yl)phenyl)picolinamide] | ≤ 10 µM | 3 to 10 µM | 1 to 3 µM
18 | C[C@H](Cc1nccn1C)c1cccc(NC(=O)c2cc(C(=O)N3CC[C@H](O)C3)ccn2)c1 [Compound 252a, 4-((S)-3-hydroxypyrrolidine-1-carbonyl)-N-(3-((R)-1-(1-methyl-1H-imidazol-2-yl)propan-2-yl)phenyl)picolinamide] | ≤ 10 µM | 1 to 3 µM | 3 to 10 µM
19 | C[C@H](Cc1nccn1C)c1cccc(NC(=O)c2cc(C(=O)N3C[C@@H](O)C[C@H]3C)ccn2)c1 [Compound 253, 4-((2R,4S)-4-hydroxy-2-methylpyrrolidine-1-carbonyl)-N-(3-((R)-1-(1-methyl-1H-imidazol-2-yl)propan-2-yl)phenyl)picolinamide] | ≤ 10 µM | 3 to 10 µM | 3 to 10 µM

— patent US20220324835A1 (Nurix Therapeutics, Inc., priority 2018, published 2022)
